How the values were obtained:
[1] = target: T1, Muscarinic acetylcholine receptor M4 (Homo sapiens) (UniProt P08173); experiment: Antagonist activity at human recombinant muscarinic M4 receptor expressed in CHO cells co-transfected with Gqi5 assessed as acetylcholine-induced response in presence of EC80 acetylcholine by calcium mobilization assay relative to untreated control; assay type: functional, cell-based; set-up: scale not given: the % may be the effect or the level left
T1 sequence (whole entry): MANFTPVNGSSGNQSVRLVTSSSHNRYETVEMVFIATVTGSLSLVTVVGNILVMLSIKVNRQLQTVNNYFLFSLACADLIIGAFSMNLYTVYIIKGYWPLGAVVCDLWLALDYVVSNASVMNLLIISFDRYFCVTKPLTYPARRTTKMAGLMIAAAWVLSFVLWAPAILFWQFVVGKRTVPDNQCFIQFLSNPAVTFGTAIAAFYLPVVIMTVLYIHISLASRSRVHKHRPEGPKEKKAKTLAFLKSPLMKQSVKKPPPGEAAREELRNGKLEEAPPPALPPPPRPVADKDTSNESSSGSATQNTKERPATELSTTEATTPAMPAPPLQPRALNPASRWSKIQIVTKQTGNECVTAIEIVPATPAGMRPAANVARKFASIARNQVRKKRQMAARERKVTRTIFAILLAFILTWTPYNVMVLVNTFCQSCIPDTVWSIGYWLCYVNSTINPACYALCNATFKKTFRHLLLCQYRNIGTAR

[2] = target: T2, Muscarinic acetylcholine receptor M4 (Homo sapiens, UniProt P08173); experiment: Antagonist activity at human recombinant muscarinic M4 receptor expressed in CHO cells co-transfected with Gqi5 in presence of EC80 acetylcholine by calcium mobilization assay; assay type: functional, cell-based
T2 sequence (P08173 whole entry): T1 sequence (whole entry)

Plasma [3] = experiment: Protein binding in rat plasma; assay type: ADME, cell-free
Plasma [4] = experiment: Protein binding in human plasma; assay type: ADME, cell-free
[5] = target: T2, Muscarinic acetylcholine receptor M4; experiment: Antagonist activity at human muscarinic M4 receptor

Structure (SMILES)	Activity [1] [%]	IC50 ([2]; read-out: IC50) [nM]	PPB (Plasma [3])	PPB (Plasma [4])	IC50 ([2]; read-out: pIC50 (converted)) [nM]	IC50 [5] [nM]
C[C@H]1COCCN1c1ccc(N2CCN(S(=O)(=O)c3ccccc3Cl)CC2)nn1	56	> 10000	–	–	–	–
C[C@H]1CCCN1c1ccc(N2CCN(S(=O)(=O)c3ccccc3Cl)CC2)nn1	9	2900	–	–	–	–
COc1ccccc1S(=O)(=O)N1CCN(c2ccc(N3CCCC[C@@H]3C)nn2)CC1	11	2380	Active	Active	–	–
C[C@H]1CCCCN1c1ccc(N2CCN(S(=O)(=O)c3ccccc3)CC2)nn1	8	2570	Active	Active	–	–
O=C1CCCCN1c1ccc(N2CCN(S(=O)(=O)c3ccccc3Cl)CC2)nn1	51	> 10000	–	–	–	–
Cc1noc(C)c1S(=O)(=O)N1CCN(c2ccc(N3CCOC[C@@H]3C)nn2)CC1	66	> 10000	–	–	–	–
Cc1noc(C)c1S(=O)(=O)N1CCN(c2ccc(N3CCCC[C@@H]3C)nn2)CC1	6	90	Active	Active	–	–
C[C@H]1CCCCN1c1ccc(N2CCN(S(=O)(=O)c3ccccc3C(F)(F)F)CC2)nn1	4	520	Active	Active	–	–
CC1CCCCN1c1ccc(N2CCN(S(=O)(=O)c3ccccc3Cl)CC2)nn1 (racemic)	9.2	530	–	–	–	1000
C[C@H]1CCCCN1c1ccc(N2CCN(S(=O)(=O)c3nccn3C)CC2)nn1	8	1600	Active	Active	–	–
CC1(C)CCCN(c2ccc(N3CCN(S(=O)(=O)c4ccccc4Cl)CC3)nn2)C1	5	940	–	–	–	–
Cc1noc(C)c1S(=O)(=O)N1CCN(c2ccc(N3CCC[C@@H]3C)nn2)CC1	10	3310	–	–	–	–
C[C@H]1CCCCN1c1ccc(N2CCN(S(=O)(=O)C3CCCCC3)CC2)nn1	51	4020	Active	Active	–	–
C[C@@H]1CCCCN1c1ccc(N2CCN(S(=O)(=O)c3ccccc3Cl)CC2)nn1	12	6080	–	–	5750	–

Other lines, results leading:

Activity [1] [%]	IC50 ([2]; read-out: IC50) [nM]	PPB (Plasma [3])	PPB (Plasma [4])	IC50 ([2]; read-out: pIC50 (converted)) [nM]	IC50 [5] [nM]	Structure (SMILES)
9	200	Active	Active	–	–	C[C@H]1CCCCN1c1ccc(N2CCN(S(=O)(=O)c3ccc4c(c3)OCO4)CC2)nn1
6	1270	–	–	–	–	O=S(=O)(c1ccccc1Cl)N1CCN(c2ccc(N3CCCCCC3)nn2)CC1
–	1330	–	–	–	–	C[C@H]1CCCCN1c1ccc(N2CCN(S(=O)(=O)c3ccc4c(c3)OCO4)CC2)cc1
–	1350	–	–	–	–	C[C@H]1CCCCN1c1ccc(N2CCN(S(=O)(=O)c3ccc4c(c3)OCO4)CC2)nc1
55	730	–	–	661	–	O=S(=O)(c1ccc2c(c1)OCO2)N1CCN(c2ccc(N3CCCCC3)nn2)CC1
14	2730	–	–	2570	–	C[C@H]1CCCN1c1ccc(N2CCN(S(=O)(=O)c3ccc4c(c3)OCO4)CC2)nn1
–	> 10000	–	–	–	–	C[C@H]1CCCCN1c1ccc(N2CCN(S(=O)(=O)c3ccc4c(c3)OCO4)CC2)cn1
–	> 10000	–	–	–	–	C[C@H]1CCCCN1c1cnc(N2CCN(S(=O)(=O)c3ccc4c(c3)OCO4)CC2)cn1
14	470	–	–	457	–	CC1(C)CCCN(c2ccc(N3CCN(S(=O)(=O)c4ccc5c(c4)OCO5)CC3)nn2)C1
12	5580	–	–	5370	–	O=S(=O)(c1ccccc1Cl)N1CCN(c2ccc(N3CCCCC3)nn2)CC1
8	430	–	–	407	–	Cc1noc(C)c1S(=O)(=O)N1CCN(c2ccc(N3CCCCCC3)nn2)CC1
63	> 10000	–	–	–	–	C[C@H]1COCCN1c1ccc(N2CCN(S(=O)(=O)c3ccc4c(c3)OCO4)CC2)nn1
7	1170	Active	Active	1120	–	C[C@H]1CCCCN1c1ccc(N2CCN(S(=O)(=O)c3ccc4ncccc4c3)CC2)nn1
20	290	–	–	–	–	O=S(=O)(c1ccc2c(c1)OCO2)N1CCN(c2ccc(N3CCCCCC3)nn2)CC1
22	760	Active	Active	708	–	C[C@H]1CCCCN1c1ccc(N2CCN(S(=O)(=O)c3cccc(Cl)c3)CC2)nn1
30	2340	Active	Active	2290	–	C[C@H]1CCCCN1c1ccc(N2CCN(S(=O)(=O)c3ccc(Cl)cc3)CC2)nn1
46	2800	Active	Active	2630	–	COc1ccc(S(=O)(=O)N2CCN(c3ccc(N4CCCC[C@@H]4C)nn3)CC2)cc1OC
